Data from patent US9745597B2, “Compositions and methods for controlling fungal and bacterial diseases in plants” (priority 2014, dated 2017).
Structures can show the parent of a compound that is named as a salt.

Legend:
[1] = system: Phakopsora pachyrhizi; assay: In vivo preventive test on Phakopsora (soybeans) (Example 12); conditions: rate 0.05%; 7 days after inoculation
[2] = system: Uromyces appendiculatus; assay: In vivo preventive test on Uromyces (beans) (Example 13); conditions: rate 0.05%; 10 days after inoculation
[3] = system: Venturia inaequalis; assay: In vivo preventive test on Venturia (apples), equilibrated mixtures (Example 17); conditions: 10 days after inoculation
[4] = system: Alternaria solani; assay: In vivo preventive test on Alternaria (tomatoes) (Example 11); conditions: rate 0.05%; 3 days after inoculation
[5] = system: Alternaria solani; assay: In vivo preventive test on Alternaria (tomatoes), equilibrated mixtures (Example 18); conditions: 3 days after inoculation
[6] = system: Botrytis cinerea; assay: In vivo preventive test on Botrytis (beans) (Example 19); conditions: lesion size 3 days after inoculation
[7] = system: Erwinia amylovora; assay: In vivo control of Erwinia amylovora on apple blossoms (Example 30); conditions: concentration 0.025 % applied to blossoms; after 6-7 days
[8] = system: Phytophthora infestans; format: in vivo; conditions: for fungicidal activity against Tomato Late Blight: 0.25, 0.50 and 1.00 weight %, FIG. 4; for Percent Control of Tomato Late Blight: 1.0 weight % in 50% ethanol
[9] = system: Botrytis cinerea; assay: In vivo preventive test on Botrytis (beans) (Example 14); conditions: rate 0.2%; lesion size 3 days after inoculation
[10] = system: Sphaerotheca fuliginea; assay: In vivo preventive test on Sphaerotheca (cucumbers), equilibrated mixtures (Example 16); conditions: rate 0.015%; 7 days after inoculation
[11] = system: Sphaerotheca fuliginea; assay: In vivo preventive test on Sphaerotheca (cucumbers) (Example 9); conditions: rate 0.05%; 7 days after inoculation
Experimental: […] (Bacillus subtilis QST713 fermentation product) and the adjuvants […]-77 (polyalkyleneoxide modified heptamethyltrisiloxane), […]® (synthetic latex), NIMBUS® (paraffin mineral oil), […] (rapeseed oil methyl ester; castor oil ethoxylated) or MERO® (rapeseed oil methyl ester) were diluted in water to the desired concentrations and applied separately and in combination to young cucumber plants. After the spray coating had dried on, the plants were inoculated with an aqueous spore suspension of Sphaerotheca fuliginea. […] (Bacillus subtilis QST713 fermentation product) in combination with […]-77 (polyalkyleneoxide modified heptamethyltrisiloxane), […]® (synthetic latex), NIMBUS® (paraffin mineral oil), […] (rapeseed oil methyl ester; castor oil ethoxylated) or MERO® (rapeseed oil methyl ester) is greater than the calculated activity, i.e., a synergistic effect is present.

[12] = system: Venturia inaequalis; assay: In vivo preventive test on Venturia (apples) (Example 10); conditions: rate 0.05%; 10 days after inoculation
[13] = system: Botrytis cinerea; format: in vivo; conditions: rates between 0.0625 and 1.0 weight %; FIG. 2B
[14] = system: Phytophthora infestans; format: in vivo; conditions: rates between 0.0625 and 2.0 weight %; FIG. 2A, FIG. 3

## CCCCC(CC)COC(=O)CC(C(=O)OCC(CC)CCCC)S(=O)(=O)[O-].[Na+] (stereo not drawn) [GEROPON ® DOS-PG]
[1]
  Efficacy in % Found: 0%
[2]
  Efficacy in % Found: 0%
[3]; rate 0.03%
  Efficacy in % Found: 38%
[3]; rate 0.06%
  Efficacy in % Found: 15%
[3]; rate 0.12%
  Efficacy in % Found: 28%
[4]
  Efficacy in % Found: 35%

## CCCCCCCCCCCCOS(=O)(=O)[O-].[Na+] [LOXANOL ® K12P, sodium dodecyl sulfate]
[3]; rate 0.03%
  Efficacy in % Found: 11%
[3]; rate 0.06%
  Efficacy in % Found: 41%
[3]; rate 0.12%
  Efficacy in % Found: 73%
[5]; rate 0.015%
  Efficacy in % Found: 8%
[5]; rate 0.03%
  Efficacy in % Found: 0%
[5]; rate 0.06%
  Efficacy in % Found: 23%
[5]; rate 0.12%
  Efficacy in % Found: 30%
[6]; rate 0.12%
  Efficacy in % Found: 0%

## [H]/N=C(/N)N[C@H]1[C@H](O)[C@@H](O)[C@H](O[C@@H]2O[C@@H](C)[C@](O)(C=O)[C@H]2O[C@@H]2O[C@@H](CO)[C@H](O)[C@@H](O)[C@@H]2NC)[C@@H](N/C(N)=N\[H])[C@@H]1O [Streptomycin sulfate]
[7]
  Efficacy in %: 89%

## CCCCCCCCCCO[C@@H]1O[C@H](CO)[C@@H](O)[C@H](O)[C@H]1O [n-decyl-B-D-glucoside]
[8]
  fungicidal activity against Tomato Late Blight: fungicidal activity was observed
  Percent Control of Tomato Late Blight: 97%

## CCCCCCCCCCCCO[C@@H]1O[C@H](CO)[C@@H](O)[C@H](O)[C@H]1O [n-dodecyl-B-D-glucoside]
[8]
  fungicidal activity against Tomato Late Blight: fungicidal activity was observed
  Percent Control of Tomato Late Blight: 96%

## CCCCCCCCCO[C@@H]1O[C@H](CO)[C@@H](O)[C@H](O)[C@H]1O [n-nonyl-B-D-glucoside]
[8]
  fungicidal activity against Tomato Late Blight: fungicidal activity was observed
  Percent Control of Tomato Late Blight: 77%

## C8-10 alkyl polyglycoside [AGNIQUE ® PG8107G]
[9]
  Efficacy in % Found: 0%

## C12-C14 lauryl dimethyl betaine [GENAGEN ® KB]
[3]; rate 0.015%
  Efficacy in % Found: 15%
[6]; rate 0.06%
  Efficacy in % Found: 18%
[6]; rate 0.12%
  Efficacy in % Found: 39%

## alkyl polyethylene glycol ether phosphoric acid mono/diester [HORDAPHOS ® 1306]
[3]; rate 0.06%
  Efficacy in % Found: 19%
[5]; rate 0.015%
  Efficacy in % Found: 30%
[5]; rate 0.03%
  Efficacy in % Found: 32%
[10]
  Efficacy in % Found: 0%
[6]; rate 0.12%
  Efficacy in % Found: 0%
[6]; rate 0.25%
  Efficacy in % Found: 14%

## cocoamidopropyl betaine (C8-C18) [GENAGEN ® CAB 818]
[3]; rate 0.015%
  Efficacy in % Found: 4%
[3]; rate 0.03%
  Efficacy in % Found: 68%
[3]; rate 0.06%
  Efficacy in % Found: 56%
[6]; rate 0.06%
  Efficacy in % Found: 29%
[6]; rate 0.12%
  Efficacy in % Found: 32%

## octyl glucose neopentyl glycol
[8]
  fungicidal activity against Tomato Late Blight: fungicidal activity was observed

## polyalkyleneoxide modified heptamethyltrisiloxane [SILWET ® L-77]
[1]
  Efficacy in % Found: 0%
[2]
  Efficacy in % Found: 0%
[11]
  Efficacy in % Found: 0%
[12]
  Efficacy in % Found: 0%
[4]
  Efficacy in % Found: 16%

## sorbitan monolaurate [SPAN ® 20]
[8]
  Percent Control of Tomato Late Blight: 75%
[13]
  control of Pepper Grey Mould: increasing control of the plant pathogen was observed as higher rates were applied
[14]
  control of Tomato Late Blight: the highest level of control was observed at 1.0 and 2.0 weight %

## sorbitan oleate [SPAN ® 80]
[8]
  Percent Control of Tomato Late Blight: 50%

## sorbitan trioleate [SPAN ® 85]
[8]
  Percent Control of Tomato Late Blight: 0%

## sucrose monodecanoate
[8]
  Percent Control of Tomato Late Blight: 25%
